We go through 1 compound from patent publication US5747506A, “Isoquinoline compounds, compositions containing them and their pharmaceutical uses” (Novartis AG, priority 1993, dated 1998).

Assay [1] has as its system SRS-A induced bronchoconstriction. The experiment in a line: TEST H experiment 1: Suppression of SRS-A Induced Bronchoconstriction (i.v. infusion). The format is in vivo, guinea pig (Dunkin-Hartley). Conditions: FPL 55712 10 mg/kg i.v. The protocol:
TEST H: Suppression of SRS-A Induced Bronchoconstriction Guinea pigs (Dunkin-Hartley, male, 400-600 g) are anesthethized with phenobarbital (100 mg/kg i.p.) and pentobarbital (30 mg/kg i.p.) and paralyzed with gallamine (100 mg/kg i.m.) Animals are ventilated via a tracheal cannula (8 ml/kg, 1 Hz) with a mixture of air and oxygen (45:55 v/v). Blood pressure and heart rate are recorded at the carotid artery. Ventilation is monitored by a Fleisch flow transducer in line with the inspiratory circuit. When making measurements of flow, coincident pressure changes in the thorax are monitored directly via an intrathoracic trochar, permitting display of differential pressure relative to the trachea. From this information in relation to flow and differential pressure, resistance [R1 ] and compliance [Cdyn ] are calculated using a digital respiratory analyzer for each respiratory cycle. Test animals are passively sensitized 24 hrs. prior to testing by administration of homologous anti-ovalbumin antiserum (1 ml i.v.). […] Allergen challenge is achieved by administration of ovalbumin (OA) and the resultant bronchoconstrictor response is used as a functional read-out of SRS-A activity. […]

The subject of a further assay is SRS-A. The experiment in a line: TEST D: Inhibition of SRS-A Production (ovalbumin challenge). The format is in vivo, guinea-pig. The note with it: 10 mg/kg i.v. 1 minute prior to challenge. The method, then:
TEST D: Inhibition of SRS-A Production Guinea-pigs are passively sensitized 24 hrs. prior to testing by i.v. administration of 1 ml homologous anti-ovalbumin antiserum. Prior to antigen challenge test animals are pre-treated with 0.32 mg/kg propanol i.v. (inhibition of endogenous catecholamines), 3.2 mg/kg, i.v. mepyramine (H1 receptor antagonism) and 3.2 mg/kg, i.v. indomethacin (inhibition of cyclo-oxygenase). Allergen challenge is effected by administration of 32 μg/kg, ovalbumin i.v. and the resultant constrictor response on airways resistance used as a functional read out of SRS-A activity. Separate test groups receive 10 mg/kg, i.v. FPL 55712 (an LTD4 receptor antagonist) 1 minute prior to challenge or test substance at varying dosage, i.v. by infusion, beginning 16 minutes prior to challenge.

Take `CCCc1c(OCC(O)COc2ccc3c(=O)cc(C(=O)O)oc3c2CCC)ccc(C(C)=O)c1O` (centres unmarked) [FPL 55712]: the “bronchoconstrictor effect of OA (experiment 1)” value in assay [1] is “abolished”. The “effect on bronchoconstriction (TEST D)” value in the assay on SRS-A is recorded as “abolition of bronchoconstriction”.
